Test results as given in PubChem BioAssay (NCI).
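Results reflect a 48-hour exposure of cells in 96-well plates to compound at five concentrations. The concentration for full growth arrest is given as TGI.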

Experiments:
Assay in all cases: NCI-60 cell line screen, 48 h
[1] = system: 786-0 renal
[2] = system: A549 NSCLC
[3] = system: ACHN renal
[4] = system: CAKI-1 renal
[5] = system: CCRF-CEM leukemia
[6] = system: COLO 205 colon
[7] = system: DLD-1 colon
[8] = system: DMS 114 small cell lung
[9] = system: DMS 273 small cell lung
[10] = system: EKVX NSCLC
[11] = system: HCC-2998 colon
[12] = system: HCT-116 colon
[13] = system: HCT-15 colon
[14] = system: HL-60(TB) leukemia
[15] = system: HOP-18 NSCLC
[16] = system: HOP-62 NSCLC
[17] = system: HOP-92 NSCLC
[18] = system: HT29 colon
[19] = system: IGROV1 ovarian
[20] = system: K-562 leukemia
[21] = system: KM12 colon
[22] = system: LOX IMVI melanoma
[23] = system: LXFL 529 NSCLC
[24] = system: M14 melanoma
[25] = system: M19-MEL melanoma
[26] = system: MALME-3M melanoma
[27] = system: MOLT-4 leukemia
[28] = system: NCI-H226 lung
[29] = system: NCI-H23 lung
[30] = system: NCI-H460 lung
[31] = system: NCI-H522 lung
[32] = system: OVCAR-3 ovarian
[33] = system: OVCAR-4 ovarian
[34] = system: OVCAR-5 ovarian
[35] = system: OVCAR-8 ovarian
[36] = system: RPMI-8226 leukemia
[37] = system: RXF 393 renal
[38] = system: RXF-631 renal
[39] = system: SF-268 CNS
[40] = system: SF-295 CNS
[41] = system: SF-539 CNS
[42] = system: SK-MEL-2 melanoma
[43] = system: SK-MEL-28 melanoma
[44] = system: SK-MEL-5 melanoma
[45] = system: SK-OV-3 ovarian
[46] = system: SN12C renal
[47] = system: SNB-19 CNS
[48] = system: SNB-75 CNS
[49] = system: SNB-78 CNS
[50] = system: SR leukemia
[51] = system: SW-620 colon
[52] = system: TK-10 renal
[53] = system: U251 CNS
[54] = system: UACC-257 melanoma
[55] = system: UACC-62 melanoma
[56] = system: UO-31 renal
[57] = system: XF 498 CNS

CCCCCCCCCCCc1cc(=O)c2c(O)cccc2o1
TGI [1]: > 100 µM | TGI [2]: > 100 µM | TGI [3]: > 100 µM | TGI [4]: > 100 µM | TGI [5]: 83.7 µM | TGI [6]: > 100 µM | TGI [7]: > 100 µM | TGI [8]: > 100 µM | TGI [9]: > 100 µM | TGI [10]: > 100 µM | TGI [11]: > 100 µM | TGI [12]: > 100 µM | TGI [13]: > 100 µM | TGI [14]: > 100 µM | TGI [15]: > 100 µM | TGI [16]: > 100 µM | TGI [17]: > 100 µM | TGI [18]: > 100 µM | TGI [19]: > 100 µM | TGI [20]: > 100 µM | TGI [21]: > 100 µM | TGI [22]: > 100 µM | TGI [23]: > 100 µM | TGI [24]: > 100 µM | TGI [25]: > 100 µM | TGI [26]: > 100 µM | TGI [27]: > 100 µM | TGI [28]: > 100 µM | TGI [29]: > 100 µM | TGI [30]: > 100 µM | TGI [31]: > 100 µM | TGI [32]: > 100 µM | TGI [33]: > 100 µM | TGI [34]: > 100 µM | TGI [35]: > 100 µM | TGI [36]: > 100 µM | TGI [37]: > 100 µM | TGI [38]: > 100 µM | TGI [39]: > 100 µM | TGI [40]: > 100 µM | TGI [41]: > 100 µM | TGI [42]: > 100 µM | TGI [43]: > 100 µM | TGI [44]: > 100 µM | TGI [45]: > 100 µM | TGI [46]: > 100 µM | TGI [47]: > 100 µM | TGI [48]: > 100 µM | TGI [49]: > 100 µM | TGI [50]: > 100 µM | TGI [51]: > 100 µM | TGI [52]: > 100 µM | TGI [53]: > 100 µM | TGI [54]: > 100 µM | TGI [55]: > 100 µM | TGI [56]: > 100 µM | TGI [57]: > 100 µM
